Results taken from US20210045385A1, “PYRIDAZINONE-SUBSTITUTED KETOXIMES AS HERBICIDES” (FMC Corporation, priority 2018, published 2021).

Experiments:
Type in all cases: in vivo
[1] = test system: Italian ryegrass (Lolium multiflorum); experiment: Test A preemergence, visual plant response rating; conditions: for Ryegrass, Italian plant response rating (0 to 100 scale): approx. 10 days
How it was run: (§1)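 Formulated in a non-phytotoxic solvent mixture including surfactant, each test chemical was sprayed onto the soil surface after sowing, or onto seedlings 2 to 10 cm high. Roughly 10 days later, plants were compared with untreated controls and rated for injury from 0 (no effect) to 100 (complete control).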

[2] = test system: ragweed (common ragweed, Ambrosia elatior); experiment: Test A preemergence, visual plant response rating; conditions: for Ragweed plant response rating (0 to 100 scale): approx. 10 days
How it was run: as §1

[3] = test system: barnyardgrass (Echinochloa crus-galli); experiment: Test A preemergence, visual plant response rating; conditions: for Barnyardgrass plant response rating (0 to 100 scale): approx. 10 days
How it was run: as §1

[4] = test system: kochia (Kochia scoparia); experiment: Test A preemergence, visual plant response rating; conditions: for Kochia plant response rating (0 to 100 scale): approx. 10 days
How it was run: as §1

[5] = test system: pigweed (Amaranthus retroflexus); experiment: Test A preemergence, visual plant response rating; conditions: for Pigweed plant response rating (0 to 100 scale): approx. 10 days
How it was run: as §1

[6] = test system: foxtail, giant (giant foxtail, Setaria faberii); experiment: Test A preemergence, visual plant response rating; conditions: for Foxtail, Giant plant response rating (0 to 100 scale): approx. 10 days
How it was run: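 Ratings use a 0–100 visual scale (100 = complete control) against untreated controls, scored about 10 days after greenhouse treatment. Test chemicals were formulated in surfactant-containing non-phytotoxic solvent and applied either as soil spray after planting (preemergence) or onto one- to two-leaf, 2–10 cm plants (postemergence).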

[7] = test system: Italian ryegrass (Lolium multiflorum); experiment: Test A postemergence, visual plant response rating; conditions: for Ryegrass, Italian plant response rating (0 to 100 scale): 500 g ai/ha, postemergence, 0 is no effect, 100 is complete control; for Ryegrass, Italian plant response rating: Postemergence, 125 g ai/ha, 0 to 100 scale (0 no effect, 100 complete control)
How it was run: as §1

[8] = test system: ragweed (common ragweed, Ambrosia elatior); experiment: Test A postemergence, visual plant response rating; conditions: for Ragweed plant response rating (0 to 100 scale): 500 g ai/ha, postemergence, 0 is no effect, 100 is complete control; for Ragweed plant response rating: Postemergence, 125 g ai/ha, 0 to 100 scale (0 no effect, 100 complete control)
How it was run: as §1

[9] = test system: barnyardgrass (Echinochloa crus-galli); experiment: Test A postemergence, visual plant response rating; conditions: for Barnyardgrass plant response rating (0 to 100 scale): 500 g ai/ha, postemergence, 0 is no effect, 100 is complete control; for Barnyardgrass plant response rating: Postemergence, 125 g ai/ha, 0 to 100 scale (0 no effect, 100 complete control)
How it was run: as §1

[10] = test system: corn (Zea mays); experiment: Test A postemergence, visual plant response rating; conditions: for Corn plant response rating (0 to 100 scale): 500 g ai/ha, postemergence, 0 is no effect, 100 is complete control; for Corn plant response rating: Postemergence, 125 g ai/ha, 0 to 100 scale (0 no effect, 100 complete control)
How it was run: as §1

[11] = test system: kochia (Kochia scoparia); experiment: Test A postemergence, visual plant response rating; conditions: for Kochia plant response rating (0 to 100 scale): 500 g ai/ha, postemergence, 0 is no effect, 100 is complete control; for Kochia plant response rating: Postemergence, 125 g ai/ha, 0 to 100 scale (0 no effect, 100 complete control)
How it was run: as §1

[12] = test system: blackgrass (Alopecurus myosuroides); experiment: Test A postemergence, visual plant response rating; conditions: for Blackgrass plant response rating (0 to 100 scale): 500 g ai/ha, postemergence, 0 is no effect, 100 is complete control; for Blackgrass plant response rating: Postemergence, 125 g ai/ha, 0 to 100 scale (0 no effect, 100 complete control)
How it was run: as §1

[13] = test system: galium (catchweed bedstraw, Galium aparine); experiment: Test A postemergence, visual plant response rating; conditions: for Galium plant response rating (0 to 100 scale): 500 g ai/ha, postemergence, 0 is no effect, 100 is complete control; for Galium plant response rating: Postemergence, 125 g ai/ha, 0 to 100 scale (0 no effect, 100 complete control)
How it was run: as §1

[14] = test system: pigweed (Amaranthus retroflexus); experiment: Test A postemergence, visual plant response rating; conditions: for Pigweed plant response rating (0 to 100 scale): 500 g ai/ha, postemergence, 0 is no effect, 100 is complete control; for Pigweed plant response rating: Postemergence, 125 g ai/ha, 0 to 100 scale (0 no effect, 100 complete control)
How it was run: as §1

[15] = test system: foxtail, giant (giant foxtail, Setaria faberii); experiment: Test A postemergence, visual plant response rating; conditions: for Foxtail, Giant plant response rating (0 to 100 scale): 500 g ai/ha, postemergence, 0 is no effect, 100 is complete control; for Foxtail, Giant plant response rating: Postemergence, 125 g ai/ha, 0 to 100 scale (0 no effect, 100 complete control)
How it was run: as §1

[16] = test system: wheat (Triticum aestivum); experiment: Test A postemergence, visual plant response rating; conditions: for Wheat plant response rating (0 to 100 scale): 500 g ai/ha, postemergence, 0 is no effect, 100 is complete control; for Wheat plant response rating: Postemergence, 125 g ai/ha, 0 to 100 scale (0 no effect, 100 complete control)
How it was run: as §1

[17] = test system: ducksalad (Heteranhera limosa); experiment: Test B flooded paddy test, visual plant response rating; conditions: 250 g ai/ha, Flood, applied to paddy water, 2-leaf stage, evaluated after 13 to 15 days
How it was run: (§2)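 Compounds added straight into paddy water of pots flooded to 3 cm, with 2-leaf-stage plants of the four species; water level held throughout.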

[18] = test system: sedge, umbrella (small-flower umbrella sedge, Cyperus difformis); experiment: as above; conditions: 250 g ai/ha, Flood, applied to paddy water, 2-leaf stage, evaluated after 13 to 15 days
How it was run: as §2

[19] = test system: barnyardgrass (Echinochloa crus-galli); experiment: as above; conditions: 250 g ai/ha, Flood, applied to paddy water, 2-leaf stage, evaluated after 13 to 15 days
How it was run: as §2

[20] = test system: rice (Oryza sativa); experiment: as above; conditions: 250 g ai/ha, Flood, applied to paddy water, 2-leaf stage, evaluated after 13 to 15 days
How it was run: as §2

[21] = 125 g ai/ha, preemergence, 0 to 100 scale, 0 no effect, 100 complete control

| Compound | Ryegrass, Italian plant response rating (0 to 100 scale) ([1]; 500 g ai/ha Preemergence) | Ragweed plant response rating (0 to 100 scale) ([2]; 500 g ai/ha Preemergence) | Barnyardgrass plant response rating (0 to 100 scale) ([3]; 500 g ai/ha Preemergence) | Kochia plant response rating (0 to 100 scale) ([4]; 500 g ai/ha Preemergence) | Pigweed plant response rating (0 to 100 scale) ([5]; 500 g ai/ha Preemergence) | Foxtail, Giant plant response rating (0 to 100 scale) ([6]; 500 g ai/ha Preemergence) | Ryegrass, Italian plant response rating (0 to 100 scale) [7] | Ryegrass, Italian plant response rating [7] | Ragweed plant response rating (0 to 100 scale) [8] | Ragweed plant response rating [8] | Barnyardgrass plant response rating (0 to 100 scale) [9] | Barnyardgrass plant response rating [9] | Corn plant response rating (0 to 100 scale) [10] | Corn plant response rating [10] | Kochia plant response rating (0 to 100 scale) [11] | Kochia plant response rating [11] | Blackgrass plant response rating (0 to 100 scale) [12] | Blackgrass plant response rating [12] | Galium plant response rating (0 to 100 scale) [13] | Galium plant response rating [13] | further results |
| --- | --- | --- | --- | --- | --- | --- | --- | --- | --- | --- | --- | --- | --- | --- | --- | --- | --- | --- | --- | --- | --- |
| CON=C(c1cccc(Cl)c1)c1c(O)c(C)nn(CC2CC2)c1=O (mixture of isomers) [Compound 4] | 30 | 0 | 70 | 0 | 0 | 50 | 0 | 0 | 0 | 0 | 0 | 0 | 0 | 0 | 0 | 0 | 40 | 0 | 0 | 0 | Ryegrass, Italian plant response rating (0 to 100 scale) ([1]; 125 g ai/ha Preemergence): 0; Ragweed plant response rating (0 to 100 scale) ([2]; 125 g ai/ha Preemergence): 0; Barnyardgrass plant response rating (0 to 100 scale) ([3]; 125 g ai/ha Preemergence): 20; Kochia plant response rating (0 to 100 scale) ([4]; 125 g ai/ha Preemergence): 0; Pigweed plant response rating (0 to 100 scale) ([5]; 125 g ai/ha Preemergence): 0; Foxtail, Giant plant response rating (0 to 100 scale) ([6]; 125 g ai/ha Preemergence): 0; Pigweed plant response rating (0 to 100 scale) [14]: 0; Pigweed plant response rating [14]: 0; Foxtail, Giant plant response rating (0 to 100 scale) [15]: 0; Foxtail, Giant plant response rating [15]: 0; Wheat plant response rating (0 to 100 scale) [16]: 0; Wheat plant response rating [16]: 0; Plant response rating, Ducksalad (0 to 100 scale, 0 is no effect, 100 is complete control) [17]: 0; Plant response rating, Sedge, Umbrella (0 to 100 scale, 0 is no effect, 100 is complete control) [18]: 0; Plant response rating, Barnyardgrass (0 to 100 scale, 0 is no effect, 100 is complete control) [19]: 0; Plant response rating, Rice (0 to 100 scale, 0 is no effect, 100 is complete control) [20]: 0 |
| CCO/N=C(/c1c(O)c(C)nn(C)c1=O)c1cccc2ccccc12 [Compound 78] | 50 | 90 | 80 | 30 | 100 | 90 | 40 | 30 | 90 | 80 | 80 | 40 | 30 | 20 | 70 | 60 | 80 | 70 | 100 | 90 | Ryegrass, Italian plant response rating [1, 21]: 30; Ragweed plant response rating [2, 21]: 90; Barnyardgrass plant response rating [3, 21]: 80; Kochia plant response rating [4, 21]: 10; Pigweed plant response rating [5, 21]: 20; Foxtail, Giant plant response rating [6, 21]: 80; Pigweed plant response rating (0 to 100 scale) [14]: 90; Pigweed plant response rating [14]: 80; Foxtail, Giant plant response rating (0 to 100 scale) [15]: 80; Foxtail, Giant plant response rating [15]: 70; Wheat plant response rating (0 to 100 scale) [16]: 0; Wheat plant response rating [16]: 0; Plant response rating, Ducksalad (0 to 100 scale, 0 is no effect, 100 is complete control) [17]: 0; Plant response rating, Sedge, Umbrella (0 to 100 scale, 0 is no effect, 100 is complete control) [18]: 0; Plant response rating, Barnyardgrass (0 to 100 scale, 0 is no effect, 100 is complete control) [19]: 0; Plant response rating, Rice (0 to 100 scale, 0 is no effect, 100 is complete control) [20]: 0 |
